Measured values taken from US20230064983A1 (priority 2020, published 2023).

Tests used:
[1] = biological target: Ba/F3-EGFR-D770_N771insSVD cells (Homo sapiens, UniProt P00533, DUP768-770, cells depend on it); assay: Ba/F3 cell survival assay, EGFR D770_N771insSVD; assay type: cell-based; conditions: Cell Titer-Glo, 48 h, without IL-3; Table 4; read-out: BA/F3 (insSVD) IC50
[2] = biological target: T1, EGFR with insertion SVD between D770 and N771 (mutEGFR D770_N771insSVD) (Homo sapiens, UniProt P00533, DUP768-770); assay: Exon20-Mutant-EGFR(D770_N771insSVD) kinase assay (TR-FRET); assay type: biochemical; conditions: 2 mM ATP, Table 2
T1 construct: amino acids R669 to A1210; made in house; host or cells: Sf9 insect cells (baculovirus)
T1 sequence (P00533 other isoform, or with tags, fused parts or gaps DUP768-770): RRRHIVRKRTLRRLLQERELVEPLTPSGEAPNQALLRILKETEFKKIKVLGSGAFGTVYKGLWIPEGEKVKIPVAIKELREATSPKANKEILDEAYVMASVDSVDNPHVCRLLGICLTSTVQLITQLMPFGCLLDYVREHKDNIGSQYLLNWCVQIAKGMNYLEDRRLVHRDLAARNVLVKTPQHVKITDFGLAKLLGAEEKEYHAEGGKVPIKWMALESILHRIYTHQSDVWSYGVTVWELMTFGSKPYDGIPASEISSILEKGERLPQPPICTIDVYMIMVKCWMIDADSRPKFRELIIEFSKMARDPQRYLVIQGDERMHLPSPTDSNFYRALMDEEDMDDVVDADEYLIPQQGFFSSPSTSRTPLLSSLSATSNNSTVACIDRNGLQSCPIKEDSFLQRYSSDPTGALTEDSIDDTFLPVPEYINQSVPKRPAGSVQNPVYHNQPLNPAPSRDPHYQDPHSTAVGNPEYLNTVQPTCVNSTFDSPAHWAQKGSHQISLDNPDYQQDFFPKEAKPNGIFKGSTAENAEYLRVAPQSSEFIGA

Ba/F3-EGFR-WT cells = Ba/F3-EGFR-WT cells (Homo sapiens, UniProt P00533); assay: Ba/F3 cell survival assay, wild type EGFR; assay type: cell-based; conditions: Cell Titer-Glo, 48 h, with 10 ng/mL EGF; Table 4; read-out: BA/F3 (wild type) IC50
Ba/F3-EGFR-WT cells, sequence (P00533 whole entry, looked up, change not shown): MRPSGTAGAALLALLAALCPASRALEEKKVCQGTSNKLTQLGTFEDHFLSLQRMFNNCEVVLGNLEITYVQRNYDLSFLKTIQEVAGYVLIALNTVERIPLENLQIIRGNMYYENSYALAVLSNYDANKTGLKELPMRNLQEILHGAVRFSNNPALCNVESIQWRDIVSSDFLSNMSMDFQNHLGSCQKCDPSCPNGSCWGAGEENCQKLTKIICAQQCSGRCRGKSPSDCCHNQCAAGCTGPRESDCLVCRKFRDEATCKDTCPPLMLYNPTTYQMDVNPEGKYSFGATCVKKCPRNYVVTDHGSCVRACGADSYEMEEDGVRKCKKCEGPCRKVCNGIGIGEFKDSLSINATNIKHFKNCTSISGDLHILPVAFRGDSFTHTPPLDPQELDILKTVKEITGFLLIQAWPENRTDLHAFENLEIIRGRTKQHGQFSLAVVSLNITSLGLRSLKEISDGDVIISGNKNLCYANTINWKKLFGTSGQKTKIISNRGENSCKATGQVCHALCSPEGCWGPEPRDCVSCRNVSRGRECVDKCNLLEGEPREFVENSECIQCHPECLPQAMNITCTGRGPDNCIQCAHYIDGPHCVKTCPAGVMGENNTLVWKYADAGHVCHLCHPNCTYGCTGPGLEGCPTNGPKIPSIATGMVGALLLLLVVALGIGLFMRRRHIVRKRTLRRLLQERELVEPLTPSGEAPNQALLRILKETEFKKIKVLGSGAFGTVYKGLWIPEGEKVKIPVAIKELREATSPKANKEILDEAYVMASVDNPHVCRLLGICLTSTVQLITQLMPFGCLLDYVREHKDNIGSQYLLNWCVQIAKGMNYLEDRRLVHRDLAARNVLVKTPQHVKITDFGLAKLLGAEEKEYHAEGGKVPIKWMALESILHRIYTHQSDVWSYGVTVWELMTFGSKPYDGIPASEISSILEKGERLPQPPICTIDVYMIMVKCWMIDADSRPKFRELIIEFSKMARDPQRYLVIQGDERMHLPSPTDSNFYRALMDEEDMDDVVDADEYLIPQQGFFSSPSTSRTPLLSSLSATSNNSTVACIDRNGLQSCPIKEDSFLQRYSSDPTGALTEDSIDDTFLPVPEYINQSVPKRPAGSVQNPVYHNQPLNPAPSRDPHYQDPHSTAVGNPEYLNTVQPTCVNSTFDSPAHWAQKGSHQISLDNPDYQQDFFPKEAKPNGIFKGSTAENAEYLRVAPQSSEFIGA

Bub1 = biological target: T2, Bub1 (Homo sapiens, UniProt O43683); assay: Bub1 high ATP kinase assay (TR-FRET); assay type: biochemical; conditions: Bub1 high ATP (2 mM) IC50, TR-FRET, 2 mM ATP; Table 3
T2 construct: catalytic domain of human Bub1 (amino acids 704-1085); His6 (N); made in house; host or cells: insect cells (Hi5)
T2 sequence (O43683 704-1085): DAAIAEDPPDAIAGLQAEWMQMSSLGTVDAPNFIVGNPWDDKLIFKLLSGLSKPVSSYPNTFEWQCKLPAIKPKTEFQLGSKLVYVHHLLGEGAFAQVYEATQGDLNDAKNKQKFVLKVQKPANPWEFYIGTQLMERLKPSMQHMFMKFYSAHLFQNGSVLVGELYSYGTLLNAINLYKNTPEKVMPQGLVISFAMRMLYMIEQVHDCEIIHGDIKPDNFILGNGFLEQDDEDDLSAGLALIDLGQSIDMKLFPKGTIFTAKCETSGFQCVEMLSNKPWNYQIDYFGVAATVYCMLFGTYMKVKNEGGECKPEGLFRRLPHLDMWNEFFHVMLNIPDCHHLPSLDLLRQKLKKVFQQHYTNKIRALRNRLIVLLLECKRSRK
In short: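 Enzyme was His6-tagged human Bub1 catalytic domain (aa 704-1085) from Hi5 insect cells, typically about 200 ng/ml, with a biotinylated peptide substrate at high ATP. Reaction ran 60 min at 22 °C, then was stopped with EDTA. Phosphopeptide was detected by TR-FRET (anti-phosphoserine antibody, Eu-labelled anti-mouse IgG, streptavidin-XL665), read as the 665/620 nm emission ratio.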

Ba/F3-EGFR-D770_N771insSVD cells, sequence (P00533 with tags, fused parts or gaps DUP768-770): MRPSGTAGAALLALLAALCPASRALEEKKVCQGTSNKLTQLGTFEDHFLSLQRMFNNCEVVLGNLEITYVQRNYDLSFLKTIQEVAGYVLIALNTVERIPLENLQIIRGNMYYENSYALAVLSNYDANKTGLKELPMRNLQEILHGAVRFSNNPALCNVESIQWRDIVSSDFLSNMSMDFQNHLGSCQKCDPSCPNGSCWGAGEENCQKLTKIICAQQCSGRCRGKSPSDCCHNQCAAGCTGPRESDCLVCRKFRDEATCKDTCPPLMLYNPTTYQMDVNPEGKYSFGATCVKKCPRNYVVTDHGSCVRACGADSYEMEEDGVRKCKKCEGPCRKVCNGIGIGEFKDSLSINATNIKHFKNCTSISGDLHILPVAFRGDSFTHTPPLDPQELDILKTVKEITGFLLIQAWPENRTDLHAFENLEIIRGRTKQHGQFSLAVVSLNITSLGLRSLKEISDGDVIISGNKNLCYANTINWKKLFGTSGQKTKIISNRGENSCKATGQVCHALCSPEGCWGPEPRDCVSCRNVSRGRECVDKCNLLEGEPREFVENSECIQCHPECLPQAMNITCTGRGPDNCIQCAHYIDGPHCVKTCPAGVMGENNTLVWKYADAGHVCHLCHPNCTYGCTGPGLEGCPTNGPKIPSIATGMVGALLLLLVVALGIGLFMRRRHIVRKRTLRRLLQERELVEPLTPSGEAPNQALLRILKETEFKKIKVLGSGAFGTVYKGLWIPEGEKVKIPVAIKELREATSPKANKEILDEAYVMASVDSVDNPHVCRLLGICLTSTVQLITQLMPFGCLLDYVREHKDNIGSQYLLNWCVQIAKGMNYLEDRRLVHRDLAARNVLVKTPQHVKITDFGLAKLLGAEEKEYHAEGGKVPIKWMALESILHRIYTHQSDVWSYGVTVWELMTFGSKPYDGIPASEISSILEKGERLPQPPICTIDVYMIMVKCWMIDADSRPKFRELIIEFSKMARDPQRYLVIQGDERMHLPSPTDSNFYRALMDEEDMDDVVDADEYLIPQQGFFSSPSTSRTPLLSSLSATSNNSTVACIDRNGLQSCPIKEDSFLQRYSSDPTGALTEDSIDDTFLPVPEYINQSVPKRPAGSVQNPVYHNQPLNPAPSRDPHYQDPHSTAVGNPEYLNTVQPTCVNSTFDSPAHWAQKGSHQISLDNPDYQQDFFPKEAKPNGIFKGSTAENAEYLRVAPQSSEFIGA

Row | Structure (SMILES) | mutEGFR (D770_N771insSVD) kinase assay IC50 [2] [nM] | IC50 (Bub1) [nM] | GI50 [1] [nM] | GI50 (Ba/F3-EGFR-WT cells) [nM]
1 | COCC(C)Oc1cnccc1-c1[nH]c2c(c1Nc1cccc(Cl)c1OC)C(=O)N[C@@H]1CCC[C@H]21 (single isomer, unassigned) [Example 50] | 0.393 | > 20000 | 349 | 1650
2 | Cc1c(Cl)cccc1Nc1c(-c2ccncc2OCC2COCCO2)[nH]c2c1C(=O)NCC2C (stereo not shown) [Example 66, 3-(3-chloro-2-methyl-anilino)-2-[3-(1,4-dioxan-2-ylmethoxy)-4-pyridyl]-7-methyl-1,5,6,7-tetrahydropyrrolo[3,2-c]pyridin-4-one] | 0.145 | 1730 | 42.8 | 766
3 | COc1c(Cl)cccc1Nc1c(-c2ccncc2OCC(C)(C)OC)[nH]c2c1C(=O)NCC2CCO (stereo not shown) [Example 13, 3-(3-chloro-2-methoxyanilino)-7-(2-hydroxyethyl)-2-[3-(2-methoxy-2-methylpropoxy)pyridin-4-yl]-1,5,6,7-tetrahydro-4H-pyrrolo[3,2-c]pyridin-4-one] | 0.189 | 3630 | 35 | 339

More lines, main results first:

Row | mutEGFR (D770_N771insSVD) kinase assay IC50 [2] [nM] | IC50 (Bub1) [nM] | Structure (SMILES) | GI50 [1] [nM] | GI50 (Ba/F3-EGFR-WT cells) [nM]
4 | 0.316 | 17200 | COc1c(Cl)cccc1Nc1c(-c2ccncc2OCC2(C)CCO2)[nH]c2c1C(=O)NCC2CCO (single isomer, unassigned) [Example 20, 3-(3-chloro-2-methoxyanilino)-7-(2-hydroxyethyl)-2-{3-[(2-methyloxetan-2-yl)methoxy]pyridin-4-yl}-1,5,6,7-tetrahydro-4H-pyrrolo[3,2-c]pyridin-4-one] | 122 | 1170
5 | 0.66 | 11600 | COc1c(Cl)cccc1Nc1c(-c2ccncc2OCC2(C)CCO2)[nH]c2c1C(=O)NCC2CCO (single isomer, unassigned) [Example 22, 3-(3-chloro-2-methoxyanilino)-7-(2-hydroxyethyl)-2-{3-[(2-methyloxetan-2-yl)methoxy]pyridin-4-yl}-1,5,6,7-tetrahydro-4H-pyrrolo[3,2-c]pyridin-4-one] | 616 | 2630
6 | 0.104 | 11100 | COc1c(Cl)cccc1Nc1c(-c2ccncc2OCC2OCCCC2(F)F)[nH]c2c1C(=O)N[C@H](C)C2 (single isomer, unassigned) [Example 75] | 18.2 | 264
7 | 0.324 | 1520 | Cc1c(Cl)cccc1Nc1c(-c2ccncc2OCC2CCCCO2)[nH]c2c1C(=O)NCC2C (single isomer, unassigned) [Example 119, 3-(3-chloro-2-methyl-anilino)-7-methyl-2-[3-(tetrahydropyran-2-ylmethoxy)-4-pyridyl]-1,5,6,7-tetrahydropyrrolo[3,2-c]pyridin-4-one] | 54.7 | 1290
